Measured values taken from patent US6972319B1, “Pituitary adenylate cyclase activating peptide (PACAP)receptor 3 (R3) agonists and their pharmacological methods of use” (priority 1999, dated 2005).
pEC50: −log10 of the molar value. Read-outs that look alike come from different tables or passages of the source. No end group written: not given here.

Tests used:
PACAP-R2 = target: T1, PACAP-R2 (Homo sapiens, UniProt P32241); test: Cyclic AMP SPA on CHO cells transfected with PACAP-R2; assay type: cell-based; conditions: concentration at which 50% of maximum PACAP27 activity is achieved, NA = no detectable activities
T1 construct: expressed in transfected cells; host or cells: CHO cells
T1 sequence (P32241 31-457): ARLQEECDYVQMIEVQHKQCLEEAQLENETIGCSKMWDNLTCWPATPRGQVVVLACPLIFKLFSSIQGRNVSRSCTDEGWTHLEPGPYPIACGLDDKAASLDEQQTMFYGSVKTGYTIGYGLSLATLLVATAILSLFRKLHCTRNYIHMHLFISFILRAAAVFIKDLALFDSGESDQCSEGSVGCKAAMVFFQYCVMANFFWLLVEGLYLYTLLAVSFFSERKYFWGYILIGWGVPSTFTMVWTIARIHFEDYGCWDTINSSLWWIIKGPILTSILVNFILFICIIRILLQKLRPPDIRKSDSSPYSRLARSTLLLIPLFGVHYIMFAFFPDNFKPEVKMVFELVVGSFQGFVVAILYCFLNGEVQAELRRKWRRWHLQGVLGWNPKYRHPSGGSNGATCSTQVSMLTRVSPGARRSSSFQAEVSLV
Method in brief: (§1)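 Receptor-transfected CHO cells are stimulated with peptide for 15 min at 37 C in the presence of phosphodiesterase inhibitor IBMX (100 uM), bacitracin and soybean trypsin inhibitor; cAMP is then read by scintillation proximity.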

rat islets = test: Insulin secretion by isolated rat islets; assay type: cell-based, Sprague-Dawley rats; conditions: for Islet Insulin Release (% of Basal): 10 nM peptide, 2 hrs, 8 mM glucose, % of [insulin] in 8 mM glucose alone
Method: Sprague Dawley rats (275-320 g) were used as the source of donor islets. Briefly, the pancreas was filled with 10 ml of cold reconstituted Liberase RI (Boehringer Manheim), harvested and incubated with additional 5 ml enzyme solution in water bath for 30 minutes. Tissue suspension was washed twice with cold 10% FBS/Hanks buffer (Gibco), resuspended in 8 ml 25% ficoll (Sigma) and then layered with 5 ml each of 23%, 20% and 11% ficoll. The islets in the 20% layer after centrifugation were removed, washed twice with cold 10% FBS/Hank buffer and resuspended in 10% FBS/RPMI 1640 media (Sigma).
Islet insulin release: Rat islets were isolated from Sprague-Dawley rats as described in example 1 and treated with either vehicle or specified peptide (10 nM) for 2 hrs. Insulin concentration in the medium was measured with the Linco rat insulin RIA kit. Glucose concentration in the medium was 8 mM. The data are expressed as % of [insulin] in 8 mM glucose alone.

PACAP-R3 = target: T2, PACAP-R3 (Homo sapiens, UniProt P41587); test: Cyclic AMP SPA on CHO cells expressing PACAP R3; assay type: cell-based; design: expressed in transfected cells; host or cells: CHO cells (Geneticin selection); conditions: for R3 Selectivity: ratio of EC50 at R2 versus EC50 at R3
T2 sequence (P41587 24-438): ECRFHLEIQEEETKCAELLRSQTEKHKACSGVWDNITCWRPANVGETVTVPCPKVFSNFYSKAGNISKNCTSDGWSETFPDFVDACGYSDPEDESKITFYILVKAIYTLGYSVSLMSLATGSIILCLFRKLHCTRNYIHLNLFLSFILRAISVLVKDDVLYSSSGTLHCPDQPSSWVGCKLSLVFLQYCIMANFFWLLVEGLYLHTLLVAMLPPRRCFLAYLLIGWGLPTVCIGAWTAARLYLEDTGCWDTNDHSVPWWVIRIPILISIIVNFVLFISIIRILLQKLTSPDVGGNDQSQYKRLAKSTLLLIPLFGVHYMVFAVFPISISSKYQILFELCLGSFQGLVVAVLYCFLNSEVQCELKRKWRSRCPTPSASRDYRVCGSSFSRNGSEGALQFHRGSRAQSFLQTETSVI
Method in brief: as §1

[1] = Peptide-induced elevation of plasma insulin after IVGTT in rats; assay type: in vivo; conditions: one minute after IVGTT (0.4 g/kg glucose), Wistar rats
Method: Wistar rats are fasted overnight (17 hrs) and then anesthetized with pentobarbital (0.1 ml/100 g BW). Glucose (0.4 g/kg dissolved in 1% human albumin-saline)+/−peptide (dissolved in 1% human albumin-saline) is injected intravenously into the tail vein. The rats are eye-bled 1 minute after the injection and 50-100 ul of the plasma are assayed for insulin level with the Linco RIA kit (Linco Research, Inc., St. Charles, Mo.).
In accordance with the protocol of example 2 above, overnight fasted Wistar rats were anesthetized with pentobarital; i.v. injected with glucose±peptide and eye bled after 1 minute. N=12 rats/group. […] The peptide or vehicle was given i.v. followed by a glucose load given i.p. in accordance with example 3. The plasma glucose was followed over the time period indicated.
Plasma insulin: Data are expressed as % of plasma insulin one minute after IVGTT (0.4 g/kg glucose) with either saline, 0.1 nmol/kg P51, P55, P60, P66 or 1 nmole/kg of the other peptides in Wistar rats. Blood was drawn from the eye and insulin was measured with the rat insulin RIA kit (Linco Research, Inc., St. Charles, Mo.).

[2] = Intraperitoneal glucose tolerance test (IPGTT), plasma glucose in rats; assay type: in vivo, Wistar rats; conditions: for elevation of plasma glucose 30 minutes after IPGTT: 1 nmole/kg s.c., rats, FIG. 7; for Plasma Glucose (% of Basal) s.c.: plasma glucose after IPGTT (1 g/kg glucose), 1 nmol/kg peptide s.c.
Method: Wistar rats are fasted overnight and then anesthetized with pentobarbital. The rats were eye-bled (zero time) and the peptide (in 1% human albumin) was injected into the tail vein. Five minutes later, 1 g/kg of glucose (in saline) was injected intraperitoneally, and the rats were eye-bled after 15, 30 and 60 minutes. Plasma glucose levels were determined using the Technicon Axon autoanalyzer, Bayer Diagnosics division of Bayer Corporation, Tarrytown N.Y., operated using Method No. SM4-2143F90“Glucose”.
Wistar rats were fasted overnight and then anesthetized with Pentobarbital. The rats were eye-bled (zero time) and the peptide (in 1% human albumin) was injected subcutaneously. Five minutes later, 1 g/kg of glucose (in saline) was injected intraperitoneally, and the rats were eye-bled after 30 minutes.
Plasma glucose: Data are expressed as % of vehicle of plasma glucose area under the curve after IPGTT (1 g/kg glucose) after treatment with 1 nmol/kg dose of the peptide. […] The present inventors have shown for the first time that this is because the effects of R2 and R3 on glucose tend to cancel each other out. […] Therefore, R3-selectivity appears to be a desirable attribute for medicaments which are to be employed in achieving blood glucose reduction, for treatment of type 2 diabetes.

[3] = Airway hyperresponsiveness in the primate acute asthma model; assay type: in vivo, cynomolgus monkeys (Macaca fascicularls); conditions: for Delta log10 PC100, Mean, Treated: aerosol 10 minutes before Ascaris suum antigen challenge, +24 hr minus baseline, R3P0 0.6, R3P76 3.0, R3P82 1.8 ug/kg; for % Inhibition of induced AHR: treated vs control, R3P0 0.6, R3P76 3.0, R3P82 1.8 ug/kg by inhalation
Method: Male cynomolgus monkeys (Macaca fascicularls) used in this study were maintained at constant temperature and humidity with a twelve hour light cycle. They were fed twice daily, except on an experimental day when food was withheld the night before the procedure. Water was available ad lib at all times.
Airway hyperresponsiveness (AHR)(baseline) was measured 1 week before the control (no treatment) antigen challenge, and again 24 hrs after antigen challenge. Antigen-induced airway hyperresponsiveness was measured by a fall in the PC100 (the concentration of methacholine required to cause a 100% increase in lung resistance) at 24 hr compared to baseline. After 2 weeks rest, another baseline measurement of AHR was performed. One week later, peptides of this invention were administered as an aerosol, 10 minutes before antigen challenge. After 24 hrs, AHR was again measured, and the fall in PC100 with treatment was compared to that without treatment.
Experimental Procedure. On each experimental day animals were anaesthetized with a ketamine/xylazine mixture (70:12 mg kg^−1 @ 0.1 ml kg^−1) while still in their cage. When unconscious they were brought into the primate laboratory where they were placed in a supine position on a heated water blanket on a trolley. Ophthalmic ointment was wiped onto each eye, and 0.2 ml lidocaine (2%,) sprayed onto the larynx and over the back of the throat. The Jaws were held apart by a jaw spreader and a cuffed 5.0 gauge endotracheal tube (with the end liberally smeared with xylocaine gel, 2%) was inserted with the aid of laryngoscope. The animal was then placed into a specially designed restraint chair such that the animal was in a slightly reclined but upright sitting position, secured only by a collar at the neck. A water-heated blanket surrounded the animal.
The endotracheal tube was connected to a Harvard Ventilator adjusted to deliver 30-35 breaths per minute. Airflow was measured by a Fleisch pneumotachograph and thoracic pressure was measured by a validyne pressure transducer (as the difference between the pressure at the distal end of the et tube and room pressure).
The pneumotachograph and validyne were connected to a pre-amplifier and then into an MI^2 respiratory analyser. […]
Antigen challenge: This was an inhalation challenge with Ascaris suum. […] 30 breaths of antigen were administered after which the acute bronchoconstriction was monitored for 15 min. […]
Methacholine challenge: Methacholine dose response curves were carried out to assess the airway hyperresponsiveness. In the acute model, this was measured at +24 hour and compared to the responsiveness 7 days before treatment. […] The aerosol was administered for 15 breaths and then lung resistance was monitored for ten minutes. […]

[4] = cAMP SPA, CHO cells transfected with PACAP-R3, concentration at which 50% of maximum PACAP27 activity is achieved, NA = no detectable activities, read-out: R3 EC50

HSDAVFTDNYTRLRKQMAVKKYLNSIKKGGT [Peptide R3P9]
pEC50 (PACAP-R2; cAMP SPA, read-out: R2 EC50): 7.40
Islet Insulin Release (% of Basal) (rat islets): 221%
pEC50 (PACAP-R3; [4]): 8.70
R3 Selectivity (PACAP-R3): 20

HSDAVFTENYTKLRKQLAAKKYLNDLKKGGT [Peptide R3P3]
pEC50 (PACAP-R2; R2 EC50, cAMP SPA): 7.00
Plasma Insulin (% of Basal) ([1]; 1 nmole/kg peptide i.v.): 361%
elevation of plasma glucose 30 minutes after IPGTT [2]: significantly reduced
disposal of blood glucose ([2]; peptide i.v. followed by glucose load i.p., FIG. 5): markedly accelerated the disposal of blood glucose
Plasma Glucose (% of Basal) s.c. ([2]; % of vehicle): 72%
Plasma Glucose (% of Basal) i.v. ([2]; plasma glucose area under the curve after IPGTT (1 g/kg glucose), 1 nmol/kg peptide i.v., % of vehicle): 77%
Islet Insulin Release (% of Basal) (rat islets): 275%
release of insulin from isolated rat islets (rat islets; 0.1-100 nM, 3 or 8 mM glucose, FIGS. 4A-4B): significantly enhances the release of insulin
pEC50 (PACAP-R3): 9.12
R3 Selectivity (PACAP-R3): 130

HSDAVFTDNYTRLRKQLAAKKYLNDIKKGGT [Peptide R3P12]
pEC50 (PACAP-R2; cAMP SPA, read-out: R2 EC50): < 7.00
Plasma Insulin (% of Basal) ([1]; 1 nmole/kg peptide i.v.): 302%
elevation of plasma glucose 30 minutes after IPGTT [2]: significantly reduced
Plasma Glucose (% of Basal) s.c. ([2]; % of vehicle): 76%
Islet Insulin Release (% of Basal) (rat islets): 324%
pEC50 (PACAP-R3; [4]): 9.30
R3 Selectivity (PACAP-R3): >200

PACAP 27: 27-amino acid form of pituitary adenylate cyclase activating peptide with an amidated carboxyl terminus [reference compound]
Plasma Insulin (% of Basal) ([1]; 1 nmole/kg peptide i.v.): 320%
Islet Insulin Release (% of Basal) (rat islets): 186%

CC[C@H](C)[C@H](NC(=O)[C@@H](NC(=O)[C@H](CC(N)=O)NC(=O)[C@H](CC(C)C)NC(=O)[C@H](Cc1ccc(O)cc1)NC(=O)[C@H](Cc1c[nH]cn1)NC(=O)[C@H](CCCCN)NC(=O)[C@H](C)NC(=O)[C@H](C)NC(=O)[C@H](CC(C)C)NC(=O)[C@H](CCC(N)=O)NC(=O)[C@H](CCCCN)NC(=O)[C@H](CCCNC(=N)N)NC(=O)[C@H](CC(C)C)NC(=O)[C@H](CCCNC(=N)N)NC(=O)[C@@H](NC(=O)[C@H](Cc1ccc(O)cc1)NC(=O)[C@H](CCC(N)=O)NC(=O)[C@H](CC(=O)O)NC(=O)[C@@H](NC(=O)[C@H](Cc1ccccc1)NC(=O)[C@@H](NC(=O)[C@H](C)NC(=O)[C@H](CC(=O)O)NC(=O)[C@H](CO)NC(=O)[C@@H](N)Cc1c[nH]cn1)C(C)C)[C@@H](C)O)[C@@H](C)O)[C@@H](C)O)C(=O)N[C@@H](CCCCN)C(=O)N[C@@H](CC(N)=O)C(=O)N[C@@H](CCCCN)C(=O)N[C@@H](CCCNC(=N)N)C(=O)N[C@@H](Cc1ccc(O)cc1)C(=O)O [Peptide R3P76]
pEC50 (PACAP-R2; cAMP SPA, read-out: R2 EC50): < 6.82
Delta log10 PC100, Mean, Treated [3]: +0.047
% Inhibition of induced AHR [3]: 100%

HSDAVFTENYTKLRKQLAAKKYLNDLLNGGT [Peptide R3P10]
pEC50 (PACAP-R2; cAMP SPA, read-out: R2 EC50): 8.52
Islet Insulin Release (% of Basal) (rat islets): 174%
pEC50 (PACAP-R3; [4]): 7.96
R3 Selectivity (PACAP-R3): 0.3

HSDAVFTDNYTRLRKQVAVKKYLQSIKNKRY [Peptide R3P82]
pEC50 (PACAP-R2; cAMP SPA, read-out: R2 EC50): 8.00
Delta log10 PC100, Mean, Treated [3]: −0.067
% Inhibition of induced AHR [3]: 88%
pEC50 (PACAP-R3; [4]): 9.40
R3 Selectivity (PACAP-R3): 23

HSDAVFTDNYTRLRKQVAAKKYLQSIKNKRY [Peptide R3P66]
pEC50 (PACAP-R2; cAMP SPA, read-out: R2 EC50): 7.00
Plasma Insulin (% of Basal) ([1]; 0.1 nmol/kg peptide i.v.): 388%
Plasma Glucose (% of Basal) s.c. ([2]; % of vehicle): 82%
Islet Insulin Release (% of Basal) (rat islets): 184%
pEC50 (PACAP-R3; [4]): 9.40
R3 Selectivity (PACAP-R3): 250
